Data as given in patent US5646184A, “Preparation for external application to the skin and novel benzoic acid derivatives” (Kao Corporation, priority 1993, dated 1997).

Tested on: skin tissue containing sebaceous glands (sebum synthesis)
Assay: Percent sebum synthesis inhibition in cultured hamster auricle skin tissue containing sebaceous glands (radioactive sodium acetate incorporation into lipids; method of Hall et al.)
Format: cell-based
Conditions: Mesocricetus auratus, 3 hours culture, average of 6 animals; for inhibition at 10 µM: concentration 10 μM; for inhibition at 8 µM: concentration 8 μM; for inhibition at 100 µM: concentration 100 μM
Experimental: The following test was conducted to evaluate the sebum synthesis inhibitory action of the benzoic acid derivatives according to the present invention.
Measurement of sebum synthesis was made in accordance with the method of Hall, et al. (cf. Arch. Dermatol. Res., 275:1-7 (1983)). The skin tissue (diameter: 4 mm) containing sebaceous glands, taken from the auricle of a male hamster, was cultured in a Krebes-Ringer's phosphate-buffered solution containing radioactive sodium acetate for 3 hours. The tissue was hydrolyzed and extracted with hexane. The amount of the radioactive labelled lipids in the hexane fraction was measured with a liquid scintillation counter to obtain the amount of the synthesized sebum. The skin tissue obtained from the left auricle of a hamster was tested using a Krebes-Ringer's phosphate-buffered solution, while that obtained from the right one of the same hamster was tested using a Krebes-Ringer's phosphate-buffered solution containing each of the compounds shown in Tables 1 and 2, and a percent synthesis inhibition was obtained according to the following numerical formula.
Percent sebum synthesis inhibition (%) =
100 - (amount of sebum synthesized in the presence of
a test compound)/(amount of sebum synthesized in the
absence of a test compound) × 100

| SMILES | inhibition at 10 µM [%] | inhibition at 8 µM [%] | other results |
| --- | --- | --- | --- |
| O=C(O)c1ccc(OCC2CCCCC2)cc1O [Compound 16, 4-cyclohexylmethoxy-2-hydroxybenzoic acid] | 44 |  |  |
| CC(CCOc1ccc(O)c(C(=O)O)c1)CC(C)(C)C (centres unmarked) [Compound 23, 2-hydroxy-5-(3,5,5-trimethylhexyloxy)benzoic acid] |  | 83 |  |
| CC(C)=CCC/C(C)=C/COc1cccc(C(=O)O)c1O [Compound 41, 3-{(2E)-3,7-dimethylocta-2,6-dienyloxy}-2-hydroxybenzoic acid] |  |  | inhibition at 100 µM: 91% |
| CC(C)=CCC/C(C)=C/COc1ccc(C(=O)O)c(O)c1 [Compound 39, 4-{(2E)-3,7-dimethylocta-2,6-dienyloxy}-2-hydroxybenzoic acid] | 52 |  | inhibition at 100 µM: 93% |
| CCCCC(CC)COc1ccc(O)c(C(=O)O)c1 (centres unmarked) [Compound 22, 5-(2-ethylhexyloxy)-2-hydroxybenzoic acid] |  | 84 |  |
| CC(C)=CCC/C(C)=C/COc1ccc(C(=O)NCCO)c(O)c1 [Compound 46, N-(2-hydroxyethyl)-4-{(2E)-3,7-dimethylocta-2,6-dienyloxy}-2-hydroxybenzamide] | 28 |  |  |
| CCCCCCOc1ccc(O)c(C(=O)O)c1 [Compound 25, 5-n-hexyloxy-2-hydroxybenzoic acid] |  | 80 |  |
| O=C(O)c1cc(OCCC2CCCCC2)ccc1O [Compound 24, 5-(2-cyclohexylethoxy)-2-hydroxybenzoic acid] |  | 78 |  |
| CCCCCCCCCCOc1ccc(C(=O)O)c(O)c1 [Compound 21, 4-n-decyloxy-2-hydroxybenzoic acid] |  | 13 |  |
| CCCCCCOc1ccc(C(=O)O)c(O)c1 [Compound 19, 4-n-hexyloxy-2-hydroxybenzoic acid] |  | 58 |  |
| CC(C)=CCC/C(C)=C/COc1cc(O)cc(C(=O)O)c1 [Compound 42, 3-{(2E)-3,7-dimethylocta-2,6-dienyloxy}-5-hydroxybenzoic acid] |  |  | inhibition at 100 µM: 70% |
| CC(C)=CCC/C(C)=C/COc1ccc(O)c(C(=O)O)c1 [Compound 40, 5-{(2E)-3,7-dimethylocta-2,6-dienyloxy}-2-hydroxybenzoic acid] | 72 |  |  |
| CC(=O)Oc1cc(OC/C=C(\C)CCC=C(C)C)ccc1C(=O)O [Compound 45, 2-acetoxy-4-{(2E)-3,7-dimethylocta-2,6-dienyloxy}benzoic acid] |  |  | inhibition at 100 µM: 47% |
| CCCCC(CC)COc1ccc(C(=O)OC)c(O)c1 (centres unmarked) [Compound 1, methyl 4-(2-ethylhexyloxy)-2-hydroxybenzoate] |  |  | inhibition at 100 µM: 32% |
| O=C(O)c1ccc(OCCC2CCCCC2)cc1O [Compound 17, 4-(2-cyclohexylethoxy)-2-hydroxybenzoic acid] | 57 |  |  |
| CCCCC(CC)COc1ccc(C(=O)NCCO)c(O)c1 (centres unmarked) [Compound 27, N-(2-Hydroxyethyl)-4-(2-ethylhexyloxy)-2-hydroxybenzamide] |  | 15 |  |
| CC(C)=CCC/C(C)=C/CC/C(C)=C/COc1ccc(C(=O)O)c(O)c1 [Compound 43, 2-hydroxy-4-{(2E,6E)-3,7,11-trimethyl-2,6,10-dodecatrienyloxy}benzoic acid] |  |  | inhibition at 100 µM: 47% |
| CC(=O)Oc1cc(OCC2CCCCC2)ccc1C(=O)O [Compound 29, 2-acetoxy-4-cyclohexylmethoxybenzoic acid] |  | 48 |  |
| CCCCC(CC)COc1ccc(C(=O)O)c(O)c1 (centres unmarked) [Compound 14, 4-(2-ethylhexyloxy)-2-hydroxybenzoic acid] | 60 |  |  |
| CC(C)=CCCC(C)CCOc1ccc(C(=O)O)c(O)c1 (centres unmarked) [Compound 18, 4-(3,7-dimethyl-6-octenyloxy)-2-hydroxybenzoic acid] | 45 |  |  |
| CC(CCOc1ccc(C(=O)O)c(O)c1)CC(C)(C)C (centres unmarked) [Compound 15, 2-hydroxy-4-(3,5,5-trimethylhexyloxy)benzoic acid] | 66 |  |  |
| CCCCCCCCOc1ccc(C(=O)O)c(O)c1 [Compound 20, 2-hydroxy-4-n-octyloxybenzoic acid] |  | 26 |  |
